Calls of active or inactive are those of the source. The calls are words filed in the database; no cut-off is given here.
Key:
Norovirus = experiment: Antiviral activity against Norovirus Genogroup 1 infected in human HG23 cells; assay type: functional, organism-based; details: Genogroup 1, HG23
[1] = Selectivity index, ratio of CC50 for cytotoxicity against human HG23 cells infected with Norovirus Genogroup 1 to EC50 for antiviral activity against Norovirus Genogroup 1 infected in human HG23 cells; assay type: toxicity, cell-based; details: read-out: Ratio CC50/EC50
[2] = Cytotoxicity against human HG23 cells infected with Norovirus Genogroup 1; assay type: toxicity, cell-based
[3] = Cytotoxicity against African green monkey Vero 76 cells infected with Measles virus CC by neutral red dye based analysis; assay type: toxicity, cell-based; details: chlorocebus sabaeus
[4] = Selectivity index, ratio of CC50 for cytotoxicity against African green monkey Vero 76 cells infected with Measles virus CC by visual analysis to EC50 for antiviral activity against Measles virus CC infected in African green monkey Vero 76 cells by visual analysis; assay type: toxicity, cell-based; details: read-out: Ratio CC50/EC50
[5] = Selectivity index, ratio of CC50 for cytotoxicity against African green monkey Vero 76 cells by neutral red dye based analysis to EC50 for antiviral activity against Measles virus CC infected in African green monkey Vero 76 cells by neutral red dye based analysis; assay type: toxicity, cell-based; details: read-out: Ratio CC50/EC50
Measles morbillivirus [6] = experiment: Antiviral activity against Measles virus CC infected in African green monkey Vero 76 cells by neutral red dye based analysis; assay type: functional, organism-based
[7] = Cytotoxicity against African green monkey Vero 76 cells infected with Measles virus CC by visual analysis; assay type: toxicity, cell-based; details: chlorocebus sabaeus
Measles morbillivirus [8] = experiment: Antiviral activity against Measles virus CC infected in African green monkey Vero 76 cells by visual analysis; assay type: functional, organism-based
Poliovirus 1 = experiment: Antiviral activity against Human poliovirus 1 Mahoney infected in African green monkey Vero 76 cells; assay type: functional, organism-based
Human betaherpesvirus 5 = experiment: Antiviral activity against Human betaherpesvirus 5 AD 169 infected in HFF cells; assay type: functional, organism-based
Influenza A virus = experiment: Antiviral activity against influenza A virus California/7/2009(H1N1) infected in MDCK cells; assay type: functional, organism-based
Enterovirus A71 = experiment: Antiviral activity against Human enterovirus 71 Tainan/4643/98 infected in African green monkey Vero 76 cells; assay type: functional, organism-based
[9] = Selectivity index, ratio of CC50 for cytotoxicity against African green monkey Vero cells infected with Marburgvirus Angola to EC50 for antiviral activity against Marburgvirus Angola infected in African green monkey Vero cells; assay type: toxicity, cell-based; details: read-out: Ratio CC50/EC50
[10] = Selectivity index, ratio of CC50 for cytotoxicity against human HepG2.2.15 cells to EC50 for antiviral activity against HBV ayw1 infected in human HepG2.2.15 cells; assay type: toxicity, cell-based; details: read-out: Ratio CC50/EC50
[11] = Cytotoxicity against MDCK cells infected with influenza A virus California/7/2009(H1N1); assay type: toxicity, cell-based, Canis lupus familiaris; details: dog
Yellow fever virus = experiment: Antiviral activity against Yellow fever virus YFV 17D infected in human Huh-7 cells; assay type: functional, organism-based
dengue virus type 2 = experiment: Antiviral activity against Dengue virus 2 New Guinea infected in human Huh-7 cells; assay type: functional, organism-based
[12] = Selectivity index, ratio of CC50 for cytotoxicity against MDCK cells infected with influenza A virus California/7/2009(H1N1) to EC50 for antiviral activity against influenza A virus California/7/2009(H1N1) infected in MDCK cells; assay type: toxicity, cell-based; details: dog; read-out: Ratio CC50/EC50
[13] = tested on: Japanese encephalitis virus; experiment: Antiviral activity against Japanese encephalitis virus SA 14 infected in African green monkey Vero 76 cells; assay type: functional, organism-based
[14] = tested on: Venezuelan equine encephalitis virus; experiment: Antiviral activity against Venezuelan equine encephalitis virus TC-83 infected in African green monkey Vero 76 cells; assay type: functional, organism-based
Marburgvirus = experiment: Antiviral activity against Marburgvirus Angola infected in African green monkey Vero cells; assay type: functional, organism-based; details: Orthomarburgvirus
Hepatitis B virus = experiment: Antiviral activity against HBV ayw1 infected in human HepG2.2.15 cells; assay type: functional, organism-based; details: ayw1, HepG2.2.15
[15] = Cytotoxicity against African green monkey Vero cells infected with Zaire ebolavirus; assay type: toxicity, cell-based; details: chlorocebus sabaeus
[16] = Cytotoxicity against human HepG2.2.15 cells; assay type: toxicity, cell-based, HepG2 2.2.15
[17] = Cytotoxicity against African green monkey Vero cells infected with Marburgvirus Angola; assay type: toxicity, cell-based; details: chlorocebus sabaeus
Punta Toro virus = experiment: Antiviral activity against Punta Toro virus Adames infected in African green monkey Vero 76 cells; assay type: functional, organism-based
Chikungunya virus = experiment: Antiviral activity against Chikungunya virus S27 infected in African green monkey Vero 76 cells; assay type: functional, organism-based
West Nile virus = experiment: Antiviral activity against West Nile virus Kern 515 infected in African green monkey Vero 76 cells; assay type: functional, organism-based
Zaire ebolavirus = experiment: Antiviral activity against Zaire ebolavirus infected in African green monkey Vero cells; assay type: functional, organism-based
[18] = Selectivity index, ratio of CC50 for cytotoxicity against African green monkey Vero cells infected with Zaire ebolavirus to EC50 for antiviral activity against Zaire ebolavirus infected in African green monkey Vero cells; assay type: toxicity, cell-based; details: read-out: Ratio CC50/EC50
[19] = Cytotoxicity against African green monkey Vero cells infected with Tacaribe virus TRVL11573 by visual analysis; assay type: toxicity, cell-based; details: chlorocebus sabaeus
[20] = Selectivity index, ratio of CC50 for cytotoxicity against African green monkey Vero cells infected with Tacaribe virus TRVL11573 by neutral red dye based analysis to EC50 for antiviral activity against Tacaribe virus TRVL11573 infected in African green monkey Vero cells by neutral red dye based analysis; assay type: toxicity, cell-based; details: read-out: Ratio CC50/EC50
[21] = Cytotoxicity against African green monkey Vero cells infected in Pichinde virus AN 4763 by neutral red dye based analysis; assay type: toxicity, cell-based; details: chlorocebus sabaeus, Vero cells infected with Pichinde virus AN 4763
Rift Valley fever virus [22] = experiment: Antiviral activity against Rift Valley fever virus MP-12 infected in African green monkey Vero 76 cells by visual analysis; assay type: functional, organism-based; details: MP-12, Vero 76
Tacaribe virus [23] = experiment: Antiviral activity against Tacaribe virus TRVL11573 infected in African green monkey Vero cells by visual analysis; assay type: functional, organism-based; details: Mammarenavirus tacaribeense
Pichinde virus [24] = experiment: Antiviral activity against Pichinde virus AN 4763 infected in African green monkey Vero cells by neutral red dye based analysis; assay type: functional, organism-based; details: AN 4763, Vero
[25] = Cytotoxicity against African green monkey Vero 76 cells infected with Rift Valley fever virus MP-12 by visual analysis; assay type: toxicity, cell-based; details: chlorocebus sabaeus
Tacaribe virus [26] = experiment: Antiviral activity against Tacaribe virus TRVL11573 infected in African green monkey Vero cells by neutral red dye based analysis; assay type: functional, organism-based; details: Mammarenavirus tacaribeense
[27] = Cytotoxicity against African green monkey Vero 76 cells infected with Rift Valley fever virus MP-12 by neutral red dye based analysis; assay type: toxicity, cell-based; details: chlorocebus sabaeus
Pichinde virus [28] = experiment: Antiviral activity against Pichinde virus AN 4763 infected in African green monkey Vero cells by visual analysis; assay type: functional, organism-based; details: AN 4763, Vero
[29] = Selectivity index, ratio of CC50 for cytotoxicity against African green monkey Vero cells infected with Tacaribe virus TRVL11573 by visual analysis to EC50 for antiviral activity against Tacaribe virus TRVL11573 infected in African green monkey Vero cells by visual analysis; assay type: toxicity, cell-based; details: read-out: Ratio CC50/EC50
Rift Valley fever virus [30] = experiment: Antiviral activity against Rift Valley fever virus MP-12 infected in African green monkey Vero 76 cells by neutral red dye based analysis; assay type: functional, organism-based; details: MP-12, Vero 76
[31] = Selectivity index, ratio of CC50 for cytotoxicity against African green monkey Vero cells infected with Pichinde virus AN 4763 by visual analysis to EC50 for antiviral activity against Pichinde virus AN 4763 infected in African green monkey Vero cells by visual analysis; assay type: toxicity, cell-based; details: read-out: Ratio CC50/EC50
[32] = Cytotoxicity against African green monkey Vero cells infected with Tacaribe virus TRVL11573 by neutral red dye based analysis; assay type: toxicity, cell-based; details: chlorocebus sabaeus
[33] = Cytotoxicity against African green monkey Vero cells infected in Pichinde virus AN 4763 by visual analysis; assay type: toxicity, cell-based; details: chlorocebus sabaeus, Vero cells infected with Pichinde virus AN 4763
[34] = (§1) Selectivity index, ratio of CC50 for cytotoxicity against African green monkey Vero 76 cells infected with Rift Valley fever virus MP-12 by visual analysis to EC50 for antiviral activity against Rift Valley fever virus MP-12 infected in African green monkey Vero 76 cells by visual analysis; assay type: toxicity, cell-based; details: read-out: Ratio CC50/EC50
[35] = as §1, with “neutral red dye based” for “visual”; assay type: toxicity, cell-based; details: read-out: Ratio CC50/EC50
[36] = Selectivity index, ratio of CC50 for cytotoxicity against African green monkey Vero cells infected with Pichinde virus AN 4763 by neutral red dye based analysis to EC50 for antiviral activity against Pichinde virus AN 4763 infected in African green monkey Vero cells by neutral red dye based analysis; assay type: toxicity, cell-based; details: read-out: Ratio CC50/EC50

## C[C@@]1(O)[C@H](O)[C@@H](CO)O[C@H]1n1ccc(N)nc1=O
Norovirus
  EC50: 1.23 µM
[1]
  selectivity ratio: > 22
[2]
  CC50: > 25 µM

## Nc1ccn([C@@H]2O[C@H](CO)[C@@H](O)[C@H]2F)c(=O)n1
[3]
  CC50: 249 µM
[4]
  selectivity ratio: 121
[5]
  selectivity ratio: 69
Measles morbillivirus [6]
  EC50: 3.59 µM
[7]
  CC50: 277 µM
Measles morbillivirus [8]
  EC50: 2.28 µM

## Nc1ncc(F)c2c1ncn2C1=C[C@H](CO)[C@@H](O)[C@H]1O
Norovirus
  EC50: 0.64 µM
Poliovirus 1
  Activity: Active
Human betaherpesvirus 5
  Activity: Active
Influenza A virus
  EC50: < 0.36 µM
Enterovirus A71
  Activity: Active
[1]
  selectivity ratio: > 2760
[9]
  selectivity ratio: > 1000
[10]
  selectivity ratio: > 2760
[11]
  CC50: > 357 µM
Yellow fever virus
  Activity: inactive
Dengue virus type 2
  Activity: inactive
[12]
  selectivity ratio: > 1000
[13]
  Activity: Active
[14]
  Activity: Active
Marburgvirus
  EC50: < 0.1 µM
Hepatitis B virus
  EC50: 1.28 µM
[15]
  CC50: > 100 µM
[16]
  CC50: > 357 µM
[17]
  CC50: > 100 µM
[2]
  CC50: > 357 µM
Punta Toro virus
  Activity: inactive
Chikungunya virus
  Activity: inactive
West Nile virus
  Activity: inactive
Zaire ebolavirus
  EC50: < 0.1 µM
[18]
  selectivity ratio: > 538

## Nc1ccn([C@@H]2CS[C@H](CO)O2)c(=O)n1 [LAMIVUDINE]
[10]
  selectivity ratio: > 99
Hepatitis B virus
  EC50: 0.02 µM
[16]
  CC50: > 2 µM

## NC(=O)c1ncn([C@@H]2O[C@H](CO)[C@@H](O)[C@H]2O)n1 [RIBAVIRIN]
[19]
  CC50: > 4090 µM
Influenza A virus
  EC50: 21.9 µM
[20]
  selectivity ratio: 130
[21]
  CC50: > 3560 µM
[11]
  CC50: > 4100 µM
Rift Valley fever virus [22]
  EC50: 49 µM
Tacaribe virus [23]
  EC50: 27.8 µM
Pichinde virus [24]
  EC50: 36.4 µM
[12]
  selectivity ratio: > 670
[25]
  CC50: > 4090 µM
Tacaribe virus [26]
  EC50: 31.1 µM
[27]
  CC50: > 4090 µM
Pichinde virus [28]
  EC50: 45 µM
[29]
  selectivity ratio: > 150
Rift Valley fever virus [30]
  EC50: 53 µM
[31]
  selectivity ratio: > 91
[32]
  CC50: 3930 µM
[33]
  CC50: > 4090 µM
[34]
  selectivity ratio: > 83
[35]
  selectivity ratio: > 77
[36]
  selectivity ratio: > 98

— ChEMBL document CHEMBL5252611, “2- and 3-Fluoro-3-deaza-1',6'-isoneplanocin: Synthesis and antiviral properties (including Ebola and Marburg)” (Bioorg Med Chem Lett, 2023)
